Measured values: patent US20080187512A1, “Treatment for spinal muscular atrophy” (Academia Sinica, priority 2007, published 2008)

Tests used:
SMN2 = SMN2 splicing pattern, semi-quantitative RT-PCR in SMN2-NSC34 cells; type: cell-based, mouse; parameters: key to SMN2 splicing pattern SMN2-NSC34: −: no effect; +: effective; +++: most effective
Procedure: Cell culture and chemical/dsRNA treatment. Mouse embryonic fibroblasts (MEFs) were prepared using the standard protocol. Briefly, E13.5 day embryo was isolated; the uterine deciduas were cut away, and the yolk sac was removed. The embryo was then scraped out to remove non-fibroblastic tissue, and the head severed for genotyping. Embryo body was minced in 0.25% Trypsin-EDTA and incubated for 30 min. It was then added to MEF culture media, and the cell suspension spun for ˜5 min at 1,000 rpm in the tissue culture centrifuge to pellet cells. The supernatant was aspirated off and the cell pellet immediately resuspended in 10 mL of fresh MEF culture media. The MEFs were allowed to reach confluency so the cells could be passaged for further experiments. Cultured MEFs and SMN2-NSC34 cells were maintained in Dulbecco's modified Eagle medium (Invitrogen, Carlsbad, Calif.) containing 10% heat-inactivated fetal bovine serum (Hyclone, Logan, Utah) and 1% penicillin-streptomycin (Invitrogen, Carlsbad, Calif.) and were incubated at 37° C. in a 5% CO2 humidified atmosphere. The cells were plated the day preceding treatment with each chemical and harvested at the indicated time.
Semi-quantitative PCR/RT-PCR. The genomic DNA from E13.5 SMA embryos was extracted. A specific primer pair, SMN forward 5′-[…]-3′ (SEQ ID NO:21) and SMN backward 5′-[…]-3′ (SEQ ID NO:22), was designed for recognition of both murine Smn and human SMN2. The PCR program initially started with a 95° C. denaturation for 10 min, followed by 19 to 26 cycles of 95° C./1 min. 53° C./1.5 min, 72° C./2 min to assay the linear range for both Smn and SMN2. For RT-PCR assay, total RNA was extracted at indicated time points from SMN2-NSC34 cells with sodium vanadate, TSA, and aclarubicin treatment or with an increasing amount of Stat5A1*6 transfection by using the TRizol reagent (Invitrogen, Carlsbad, Calif.). To amplify the exon7 inclusion/exclusion form of SMN2 transcripts, RT-PCR were performed using a primer set P5P6 as previously described (15). The transcript from the mouse glyceraldehyde-3-phosphate dehydrogenase (Gapdh) gene or the β-Actin gene was amplified using the primer pairs: Gapdh forward: 5′-[…]-3′ (SEQ ID NO:23), and backward: 5′-[…]-3′ (SEQ ID NO:24) (56° C.), and β-Actin forward: 5′-[…]-3′ (SEQ ID NO:25), and backward 5′-[…]-3′ (SEQ ID NO:26) (59° C.), and this allowed control of equal amounts of template. […] The gel images were digitally captured with a CCD camera and analyzed with the Alphalmager™. […] Relative total SMN2 transcript levels were determined from Stat5A1*6 transfected SMN2-NSC34 cells in a minimum of three independent experiments. Differences in ratios were determined to be significant by an independent two-tailed t-test, with *, P<0.05, **, P<0.005, ***, p<0.001.

P38 (pT180/pY182) = test: Signaling pathway screen in SMN2-NSC34 cells; type: cell-based, mouse

For Sodium vanadate, the “SMN2 splicing pattern SMN2-NSC34” value (SMN2) was “+++”, the “efficiency in increasing full length SMN2 transcripts relative to the other compounds” value (SMN2) was “most efficient” and the “treatment time after which the full length SMN2 expression level was enhanced” value (SMN2) was 2 to 4 h. For the same substance, the “P38 (pT180/pY182) cellular response” value (P38 (pT180/pY182); 4 hrs) was “+/−” and the “P38 (pT180/pY182) cellular response” value (P38 (pT180/pY182); 8 hrs) was “+”.
